Assay results reported in paper PMC10041525, “New Dual Inhibitors of Bacterial Topoisomerases with Broad-Spectrum Antibacterial Activity and In Vivo Efficacy against Vancomycin-Intermediate Staphylococcus aureus” (Journal of Medicinal Chemistry, 2023).
≈ marks a conversion by molar mass, not a printed value. Where “and” joins values, the source holds several entries; their conditions need not be identical. Identical values can stand only once. Like-named read-outs stand apart in the source and are kept apart here.

Experiments:
[1] = tested on: P. aeruginosa ATCC 27853; assay: IHMA QC MIC; format: cell-based
[2] = tested on: S. pneumoniae ATCC 49619; set-up: method as in earlier work; conditions: QC range for S. pneumoniae ATCC 49619, ref CLSI; cited from earlier work
[3] = tested on: Haemophilus influenzae (n = 14); assay: MIC broth microdilution at IHMA Europe; format: cell-based, H. influenzae; conditions: for MIC: Haemophilus influenzae
[4] = tested on: E. faecium (n = 13); assay: MIC broth microdilution at IHMA Europe; format: cell-based; conditions: Enterococcus faecium
[5] = tested on: S. pneumoniae (n = 12); assay: MIC broth microdilution at IHMA Europe; format: cell-based; conditions: for MIC: Streptococcus pneumoniae
[6] = tested on: E. faecalis ATCC 29212; set-up: method as in earlier work; conditions: QC range for E. faecalis ATCC 29212, ref CLSI; cited from earlier work
[7] = tested on: H. influenzae ATCC 49247; assay: IHMA QC MIC; format: cell-based
Source text: (§1) Supplement jm2c01905_si_004.xlsx, sheet "QC" | column: MIC [µg/mL]

[8] = tested on: E. faecalis ATCC 29212; assay: IHMA QC MIC; format: cell-based
Source text: as §1

[9] = tested on: H. influenzae ATCC 49766; assay: IHMA QC MIC; format: cell-based
Source text: as §1

[10] = tested on: S. pneumoniae ATCC 49619; assay: IHMA QC MIC; format: cell-based
Source text: as §1

[11] = tested on: E. coli ATCC 25922; assay: IHMA QC MIC; format: cell-based
[12] = target: A. baumannii DNA gyrase (Acinetobacter baumannii, UniProt A0ABX6CA01); assay: gel-based supercoiling assay; format: biochemical
Chain of A. baumannii DNA gyrase (A0ABX6CA01 1-822): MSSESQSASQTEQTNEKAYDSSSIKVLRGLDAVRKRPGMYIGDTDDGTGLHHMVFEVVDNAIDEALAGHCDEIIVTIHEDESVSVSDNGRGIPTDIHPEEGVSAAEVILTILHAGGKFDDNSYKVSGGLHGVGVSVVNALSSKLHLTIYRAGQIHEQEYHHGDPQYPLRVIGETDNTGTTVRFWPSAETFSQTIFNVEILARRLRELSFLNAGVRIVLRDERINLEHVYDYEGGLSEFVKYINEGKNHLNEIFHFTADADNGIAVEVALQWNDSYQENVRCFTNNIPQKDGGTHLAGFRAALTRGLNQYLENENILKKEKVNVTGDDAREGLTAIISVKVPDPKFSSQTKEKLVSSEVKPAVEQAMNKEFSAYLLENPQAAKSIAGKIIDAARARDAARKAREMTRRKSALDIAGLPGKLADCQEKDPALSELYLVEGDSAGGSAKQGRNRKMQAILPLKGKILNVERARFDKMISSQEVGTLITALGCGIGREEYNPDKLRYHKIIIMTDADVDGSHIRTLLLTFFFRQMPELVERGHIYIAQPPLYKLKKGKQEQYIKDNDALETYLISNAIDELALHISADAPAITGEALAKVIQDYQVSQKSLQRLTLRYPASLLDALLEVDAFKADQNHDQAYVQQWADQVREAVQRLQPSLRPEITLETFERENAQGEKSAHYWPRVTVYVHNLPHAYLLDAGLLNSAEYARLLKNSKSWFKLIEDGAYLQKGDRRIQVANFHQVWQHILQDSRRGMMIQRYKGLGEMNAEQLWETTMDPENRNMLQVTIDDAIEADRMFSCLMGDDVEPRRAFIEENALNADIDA
Chain of A. baumannii DNA gyrase (A0ABX6CII0 1-904 partner): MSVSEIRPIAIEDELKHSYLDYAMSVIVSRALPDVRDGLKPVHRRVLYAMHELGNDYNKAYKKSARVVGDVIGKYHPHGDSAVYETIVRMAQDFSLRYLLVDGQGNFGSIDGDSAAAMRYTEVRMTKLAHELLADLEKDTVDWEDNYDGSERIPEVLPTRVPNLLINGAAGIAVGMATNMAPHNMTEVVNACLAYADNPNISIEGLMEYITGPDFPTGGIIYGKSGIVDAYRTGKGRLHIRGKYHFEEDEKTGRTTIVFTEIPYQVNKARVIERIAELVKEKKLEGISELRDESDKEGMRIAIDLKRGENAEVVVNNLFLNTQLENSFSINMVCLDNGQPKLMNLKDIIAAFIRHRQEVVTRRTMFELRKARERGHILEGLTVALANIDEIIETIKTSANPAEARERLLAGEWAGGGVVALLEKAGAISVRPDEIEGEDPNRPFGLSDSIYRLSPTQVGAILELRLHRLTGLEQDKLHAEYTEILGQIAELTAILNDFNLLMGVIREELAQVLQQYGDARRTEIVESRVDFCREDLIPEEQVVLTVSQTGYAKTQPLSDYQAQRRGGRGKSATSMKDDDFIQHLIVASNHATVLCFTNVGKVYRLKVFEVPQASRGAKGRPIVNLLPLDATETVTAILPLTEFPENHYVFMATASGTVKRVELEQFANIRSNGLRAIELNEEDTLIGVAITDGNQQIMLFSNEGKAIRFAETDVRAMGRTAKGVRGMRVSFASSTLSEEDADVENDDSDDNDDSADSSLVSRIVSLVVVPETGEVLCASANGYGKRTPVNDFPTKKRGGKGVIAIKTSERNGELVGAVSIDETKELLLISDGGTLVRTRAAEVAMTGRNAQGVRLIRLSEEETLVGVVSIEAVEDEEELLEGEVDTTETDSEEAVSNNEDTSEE
Protocol: In all experiments, the activity of the
enzymes was determined prior to the testing of the compound and 1 unit (U) was defined as the
amount of enzyme required to just fully supercoil or decatenate the substrate. This amount of
enzyme was initially used in determination of control inhibitor activity. These experiments were
performed in duplicate. […] The final DMSO
concentration was 1% for all assays. All measurements were performed in quadruplicates. The
condition for each reaction were as follows:
− S. aureus gyrase supercoiling assay
1 U of S. aureus gyrase was incubated with 0.5 µg of relaxed pBR322 DNA in a 30 µL reaction at
magnesium acetate, 10 mM DTT, 2 mM ATP, 500 mM potassium glutamate and 0.05 mg/mL
− S. aureus topo IV decatenation assay
1 U of S. aureus topo IV was incubated with 20 µg kDNA in a 30 µL reaction at 37 °C for 30
mM ATP, 350 mM potassium glutamate and 0.05 mg/mL albumin.
− A. baumannii gyrase supercoiling assay
1 U of A. baumannii gyrase was incubated with 0.5 µg of relaxed pBR322 DNA in a 30 µL reaction
blue), before being loaded on a 1.0% TAE gel run at 80V for 2 hours. Bands were visualised by
ethidium bromide staining for 20 minutes and destaining for 20 minutes. Gels were scanned using
documentation equipment (GeneGenius, Syngene, Cambridge, UK) and % inhibition levels were
measured by determining the relative fluorescence of the supercoiled band using gel scanning
software. […]

[13] = tested on: S. aureus (VISA) ATCC 700699; assay: MIC broth microdilution (CLSI); format: cell-based; conditions: Staphylococcus aureus; read-out: MIC
Summary of the method: (§2)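 Using standard CLSI methodology, triplicate wells seeded at 5 × 10^4 cells in 100 μL cation-adjusted MHBII are incubated 18 h at 37 °C. The MIC corresponds to the drug concentration inhibiting culture growth as judged by OD600.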

[14] = tested on: S. aureus (MRSA) ATCC 43300; assay: MIC broth microdilution (CLSI); format: cell-based; conditions: Staphylococcus aureus
Summary of the method: as §2

CN[C@H](CC(C)C)C(=O)N[C@H]1C(=O)N[C@@H](CC(N)=O)C(=O)N[C@H]2C(=O)N[C@H]3C(=O)N[C@H](C(=O)N[C@H](C(=O)O)c4cc(O)cc(O)c4-c4cc3ccc4O)[C@H](O)c3ccc(c(Cl)c3)Oc3cc2cc(c3O[C@@H]2O[C@H](CO)[C@@H](O)[C@H](O)[C@H]2O[C@H]2C[C@](C)(N)[C@H](O)[C@H](C)O2)Oc2ccc(cc2Cl)[C@H]1O [Vancomycin, vancomycin]
MIC ([1]; Pseudomonas aeruginosa, ATCC27853): > 32 µg/mL | MIC ([1]; QC strain P. aeruginosa ATCC 27853, test date 2021-11-26): >32 µg/mL | MIC, CLSI Range [2]: 0,12 - 0,5 µg/mL | No. of isolates at MIC [3]: 5 and 9 | MIC ([3]; H. influenzae IHMA N° 1227715): > 32 µg/mL | MIC ([3]; H. influenzae IHMA N° 1241620): > 32 µg/mL | MIC ([3]; H. influenzae IHMA N° 1244149): 32 µg/mL (≈ 22.1 µM) | MIC ([3]; H. influenzae IHMA N° 1249803): > 32 µg/mL | MIC ([3]; H. influenzae IHMA N° 1254355): 32 µg/mL (≈ 22.1 µM) | MIC ([3]; H. influenzae IHMA N° 1258580): > 32 µg/mL | MIC ([3]; H. influenzae IHMA N° 1262734): 32 µg/mL (≈ 22.1 µM) | MIC ([3]; H. influenzae IHMA N° 1272723): > 32 µg/mL | MIC ([3]; H. influenzae IHMA N° 1286846): > 32 µg/mL | MIC ([3]; H. influenzae IHMA N° 1337530): > 32 µg/mL | MIC ([3]; H. influenzae IHMA N° 1440085): > 32 µg/mL | MIC ([3]; H. influenzae IHMA N° 1479509): 32 µg/mL (≈ 22.1 µM) | MIC ([3]; H. influenzae IHMA N° 1952952): > 32 µg/mL | MIC ([3]; H. influenzae IHMA N° 2047461): 32 µg/mL (≈ 22.1 µM) | MIC ([4]; E. faecium IHMA N° 1764866): 16 µg/mL (≈ 11 µM) | MIC ([4]; E. faecium IHMA N° 1765436): 16 µg/mL (≈ 11 µM) | MIC ([4]; E. faecium IHMA N° 1765746): > 32 µg/mL | MIC ([4]; E. faecium IHMA N° 1893573): 32 µg/mL (≈ 22.1 µM) | MIC ([4]; E. faecium IHMA N° 1893846): > 32 µg/mL | MIC ([4]; E. faecium IHMA N° 1893942): 32 µg/mL (≈ 22.1 µM) | MIC ([4]; E. faecium IHMA N° 1894055): > 32 µg/mL | MIC ([4]; E. faecium IHMA N° 1897027): > 32 µg/mL | MIC ([4]; E. faecium IHMA N° 1897101): > 32 µg/mL | MIC ([4]; E. faecium IHMA N° 1904592): > 32 µg/mL | MIC ([4]; E. faecium IHMA N° 2075051): 16 µg/mL (≈ 11 µM) | MIC ([4]; E. faecium IHMA N° 2077718): > 32 µg/mL | MIC ([4]; E. faecium IHMA N° 2083787): > 32 µg/mL | No. of isolates at MIC [5]: 5 and 6 | Cumulative % at MIC ([5]; MIC 1 µg/mL): 100.0% | No. of isolates at MIC ([5]; MIC 1 µg/mL): 1 | MIC ([5]; S. pneumoniae IHMA N° 1775387): 0.25 µg/mL (≈ 0.173 µM) | MIC ([5]; S. pneumoniae IHMA N° 1776057): 0.25 µg/mL (≈ 0.173 µM) | MIC ([5]; S. pneumoniae IHMA N° 1785617): 0.12 µg/mL (≈ 0.0828 µM) | MIC ([5]; S. pneumoniae IHMA N° 1800765): 0.12 µg/mL (≈ 0.0828 µM) | MIC ([5]; S. pneumoniae IHMA N° 1811259): 0.12 µg/mL (≈ 0.0828 µM) | MIC ([5]; S. pneumoniae IHMA N° 1831562): 0.25 µg/mL (≈ 0.173 µM) | MIC ([5]; S. pneumoniae IHMA N° 1902609): 0.25 µg/mL (≈ 0.173 µM) | MIC ([5]; S. pneumoniae IHMA N° 1979675): 0.25 µg/mL (≈ 0.173 µM) | MIC ([5]; S. pneumoniae IHMA N° 1991963): 1 µg/mL (≈ 0.69 µM) | MIC ([5]; S. pneumoniae IHMA N° 2057487): 0.12 µg/mL (≈ 0.0828 µM) | MIC ([5]; S. pneumoniae IHMA N° 2073087): 0.25 µg/mL (≈ 0.173 µM) | MIC ([5]; S. pneumoniae IHMA N° 2117109): 0.12 µg/mL (≈ 0.0828 µM) | MIC, CLSI Range [6]: 1 to 4 µg/mL | MIC ([7]; Haemophilus influenzae, ATCC49247): > 32 µg/mL | MIC ([7]; QC strain H. influenzae ATCC 49247, test date 2021-11-26): >32 µg/mL | MIC ([8]; Enterococcus faecalis, ATCC29212): 2 µg/mL (≈ 1.38 µM) | MIC ([8]; QC strain E. faecalis ATCC 29212, test date 2021-11-26): 2 µg/mL (≈ 1.38 µM) | MIC ([9]; Haemophilus influenzae, ATCC49766): > 32 µg/mL | MIC ([9]; QC strain H. influenzae ATCC 49766, test date 2021-11-26): >32 µg/mL | MIC ([10]; QC strain S. pneumoniae ATCC 49619, test date 2021-11-26): 0.12 µg/mL (≈ 0.0828 µM) | MIC ([10]; Streptococcus pneumoniae, ATCC49619): 0.12 µg/mL (≈ 0.0828 µM) | MIC ([11]; Escherichia coli, ATCC25922): > 32 µg/mL | MIC ([11]; QC strain E. coli ATCC 25922, test date 2021-11-26): >32 µg/mL

CO[C@@H]1[C@@H](OC(N)=O)[C@@H](O)[C@H](Oc2ccc3c(O)c(NC(=O)c4ccc(O)c(CC=C(C)C)c4)c(=O)oc3c2C)OC1(C)C [novobiocin]
IC50 [12]: 2.17 ± 0.16 nM | MIC [13]: 0.0312 µg/mL | MIC [14]: 0.125 µg/mL
